Biological target: T1, PTPN21 (PTPD1) (Homo sapiens, UniProt Q16825)
T1 construct: 839-1174
T1 sequence (Q16825 1-1174): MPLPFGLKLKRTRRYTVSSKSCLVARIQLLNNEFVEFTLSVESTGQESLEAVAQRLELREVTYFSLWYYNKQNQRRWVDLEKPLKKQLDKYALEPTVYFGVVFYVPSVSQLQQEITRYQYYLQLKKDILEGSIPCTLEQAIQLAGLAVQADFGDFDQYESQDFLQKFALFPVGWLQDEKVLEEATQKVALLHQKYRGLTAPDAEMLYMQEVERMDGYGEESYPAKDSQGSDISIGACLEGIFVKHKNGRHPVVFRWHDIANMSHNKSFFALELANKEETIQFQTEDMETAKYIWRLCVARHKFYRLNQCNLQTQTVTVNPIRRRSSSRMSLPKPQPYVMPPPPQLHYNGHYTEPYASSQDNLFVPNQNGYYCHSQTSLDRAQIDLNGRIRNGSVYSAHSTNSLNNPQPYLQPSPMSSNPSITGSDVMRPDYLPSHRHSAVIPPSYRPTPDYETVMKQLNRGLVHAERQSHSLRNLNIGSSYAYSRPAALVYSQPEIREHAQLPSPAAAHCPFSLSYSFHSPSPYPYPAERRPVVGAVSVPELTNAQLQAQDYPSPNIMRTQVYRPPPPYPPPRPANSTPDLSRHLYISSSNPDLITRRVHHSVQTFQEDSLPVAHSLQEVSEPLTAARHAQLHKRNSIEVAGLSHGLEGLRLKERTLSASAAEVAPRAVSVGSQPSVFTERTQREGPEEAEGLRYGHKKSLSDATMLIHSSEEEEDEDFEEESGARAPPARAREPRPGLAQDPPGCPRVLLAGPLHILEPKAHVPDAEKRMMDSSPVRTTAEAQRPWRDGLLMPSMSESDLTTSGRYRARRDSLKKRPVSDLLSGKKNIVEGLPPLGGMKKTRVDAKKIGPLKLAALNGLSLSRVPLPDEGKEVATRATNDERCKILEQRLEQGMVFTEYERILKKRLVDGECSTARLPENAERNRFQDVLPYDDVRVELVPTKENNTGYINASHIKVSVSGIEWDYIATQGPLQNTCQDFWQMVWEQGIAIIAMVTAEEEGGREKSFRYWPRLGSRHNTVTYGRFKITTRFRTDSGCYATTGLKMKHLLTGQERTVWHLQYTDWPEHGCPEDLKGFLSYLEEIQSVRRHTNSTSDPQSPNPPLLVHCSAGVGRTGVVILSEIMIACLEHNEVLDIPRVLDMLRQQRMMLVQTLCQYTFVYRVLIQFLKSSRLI
Experiment: biochemical
Set-up: Fluorogenic phosphatase assay, DiFMUP hydrolysis by recombinant PTPs, initial velocity, Ex/Em 355/460 nm
Details: read-out: Inhibition by 20 µM polyphyllin D (%)
Protocol: Enzymatic reactions were initiated by the addition of SHP2 (final concentration of 10 nM) to a solution of each of the 658 phytochemical compounds (final concentration of 20 µM) in reaction buffer (20 mM bis-tris pH 6.0, 150 mM NaCl, 2.5 mM dithiothreitol, and 0.01% Triton X-100) containing DiFMUP (final concentration of 140 µM). Changes in the fluorescence intensities were measured continuously for 10 min at Ex/Em = 355/460 nm on a VictorTM X4 multilabel plate reader. Enzyme inhibition was estimated by comparing the reaction velocity in the presence of each compound with that in the absence of any compound. Inhibition of the other PTPs was measured in the same way. Next, we established a screening strategy using a DiFMUP substrate to identify a natural product that inhibits SHP2 activity. Initially, we screened 658 compounds at 20 µM using a 96-well plate system (Figure 2A). […] The selected compounds were tested at 20 µM for SHP2 inhibition, and 14 additional non-receptor-type PTPs (PTP1B, TCPTP, PTPH1, STEP, SHP1, HePTP, PTP-MEG2, PTP-PEST, PTP-BAS, PTP36, PTP-HSCF, PTPD1, LYP, and HD-PTP) were used to investigate the inhibition selectivity. The results were visualized using a heat map analysis by GraphPad Prism (Figure 2B and Table S2 in Supplementary Materials). To identify new SHP2 anticancer natural products, we first performed cloning to express SHP2 protein and then purified it. PTPN11 (Gene ID: 5781) encoding human SHP2 (amino acids sequences 1 to 526) with several extra amino acids were cloned into the MBP-pET 28a (+) vector, which was successfully used to overexpress PTPs with enhanced solubility in an Escherichia coli expression system. Information on amino acids for 15 non-receptor-type PTPs including SHP2 is summarized in Table S3 in the Supplementary Materials. SHP2 was overexpressed in RosettaTM (DE3) and purified using a metal affinity resin (Figure S1 in Supplementary Materials). […] The kcat, KM, and kcat/KM values were determined to be 270 min^−1, 70 μM, and 3.9 μM^−1min^−1, respectively, using the Lineweaver–Burk plot analysis (Table S1 in Supplementary Materials).

Question: Which inhibition at 20 µM does the source give for C[C@@H]1CC[C@@]2(OC1)O[C@H]1C[C@H]3[C@@H]4CC=C5C[C@@H](O[C@@H]6O[C@H](CO)[C@@H](O[C@@H]7O[C@@H](CO)[C@H](O)[C@H]7O)[C@H](O)[C@H]6O[C@@H]6O[C@@H](C)[C@H](O)[C@@H](O)[C@H]6O)CC[C@]5(C)[C@H]4CC[C@]3(C)[C@H]1[C@@H]2C [polyphyllin D] here?
Answer: 20.5%
